The values below are quoted from earlier work in patent US20170001952A1, “FUMARATE COMPOUNDS, PHARMACEUTICAL COMPOSITIONS THEREOF, AND METHODS OF USE” (priority 2015, published 2017).

For `COC(=O)/C=C/C(=O)OC` [DMF, dimethylfumarate], the aqueous solubility result is on record as “poor aqueous solubility”.
